Experimental data from ChEMBL document CHEMBL5608141, “Identification of compartment-specific drug sensitivities in CRC organoid-stroma co-cultures” (2024).

What was measured:
Format in all cases: functional, Homo sapiens
Parameters in all cases: dose or concentration left out as unconfirmed
Colon cancer organoid [1] = experiment: Identification of compartment-specific drug sensitivities in O06 CRC organoid-stroma F06 CAF co-cultures. Organoid is transduced with Lucferase2-P2A-EGFP lentivirus, fibroblast with Renilla-dsRed lentivirus. Dual-Glo Luciferase assay is used to report viability data.
Colon cancer organoid [2] = experiment: Identification of compartment-specific drug sensitivities in O20 CRC organoid-stroma F20 CAF co-cultures. Organoid is transduced with Lucferase2-P2A-EGFP lentivirus, fibroblast with Renilla-dsRed lentivirus. Dual-Glo Luciferase assay is used to report viability data.
Colon cancer organoid [3] = experiment: Identification of compartment-specific drug sensitivities in O14 CRC organoid-stroma F14 CAF co-cultures. Organoid is transduced with Lucferase2-P2A-EGFP lentivirus, fibroblast with Renilla-dsRed lentivirus. Dual-Glo Luciferase assay is used to report viability data.
[4] = Transduced with Lucferase2-P2A-EGFP lentivirus
[5] = Transduced with Renilla-dsRed lentivirus

Structure (SMILES)	Cell Viability (Colon cancer organoid [1]; [4])	Cell Viability (Colon cancer organoid [1]; [5])	Cell Viability (Colon cancer organoid [2]; [4])	Cell Viability (Colon cancer organoid [2]; [5])	Cell Viability (Colon cancer organoid [3]; [4])	Cell Viability (Colon cancer organoid [3]; [5])
Cc1c(C(=O)Nc2ccc(Oc3ccnc4[nH]cc(-c5ccccc5)c34)c(F)c2)c(=O)n(-c2ccc(F)cc2)n1C	73.6786%	56.2803%	225.47%	22.9382%	62.1416%	28.9447%
CNCCN1CCC(OCc2ccccc2)CC1	118.085%	144.179%	15.2261%	211.667%	40.9856%	114.707%
CN(C)[C@H]1CN(C2CCc3cccc(F)c32)C[C@@H]1c1ccc(N2CCN(S(C)(=O)=O)CC2)cc1 (stereo partly drawn)	82.1891%	127.07%	31.9931%	145.189%	77.8807%	109.764%
CC1(C)C(N)=Nc2cc(OCCCN3Cc4ccc(OCCc5cn(CC(=O)N6CCC(CCN7CCCC7)CC6)nn5)cc4C3)c(OCC3CC3)cc21	85.8179%	109.54%	95.5615%	161.052%	112.775%	105.217%
CC1(C)C(N)=Nc2cc(OCCCCN3Cc4ccc(OCc5cn(CC(=O)N6CCC(CCN7CCCC7)CC6)nn5)cc4C3)c(OCC3CC3)cc21	65.2251%	114.368%	70.7317%	125.652%	112.762%	94.6071%
CN(C)C(=O)Cn1cc(-c2ccc(-c3cncc4ccccc34)cc2)cn1	83.3121%	47.4852%	98.3492%	25.8647%	88.4928%	18.4119%
COc1ccccc1-c1cc(N2CCN(C(=O)OC(C)(C)C)CC2)c(N)nn1	99.4085%	102.712%	123.55%	160.936%	120.209%	94.5585%
Cc1ccc2nc(NCCN)c3ncc(C)n3c2c1.O=C(O)C(F)(F)F.O=C(O)C(F)(F)F	94.0156%	112.188%	234.528%	67.6056%	111.823%	88.3847%
CN(C)C(=O)Cn1cc(-c2ccc(-c3nnc4ccccn34)cc2)cn1	105.212%	110.192%	167.784%	52.6743%	99.1399%	78.8551%
Cc1ncsc1-c1ccc(CNC(=O)[C@@H]2C[C@@H](O)CN2C(=O)[C@@H](NC(=O)CCCCNC(=O)c2ccc(-c3ccc(N4CCN(C)CC4)c(NC(=O)c4c[nH]c(=O)cc4C(F)(F)F)c3)cc2)C(C)(C)C)cc1	81.8894%	85.2238%	172.591%	86.697%	124.425%	102.442%
CCn1c(-c2nc3cc(C(=O)N4CCCC(N)C4)ccc3n2C)cc2ccccc21.Cl (stereo not drawn)	115.054%	117.733%	133.825%	136.72%	132.628%	112.241%
O=C(CNCc1cc2ccccc2[nH]1)N[C@H]1CC[C@@H](c2nc3ccccc3[nH]2)CC1	85.8975%	91.436%	100.403%	124.153%	106.264%	107.393%
Cc1cc(CN)cc(C)c1-c1ncn(C)c1-c1ccnc2cc(F)ccc12.Cl	105.057%	123.721%	144.981%	87.6481%	138.136%	105.376%
N#CN1CC[C@H](C(=O)Nc2nc3c(s2)CN(C(=O)CN=[N+]=[N-])CC3)C1 [8RK64]	104.648%	104.354%	67.6209%	105.29%	81.1298%	93.9024%
CN(C)[C@@H]1CCN(c2cc(-c3ccccc3)nc3ccnn23)C1 [(R)-ZINC-3573]	122.992%	121.371%	97.984%	99.7993%	83.9602%	82.5117%
CN(C)[C@H]1CCN(c2cc(-c3ccccc3)nc3ccnn23)C1 [(S)-ZINC-3573]	87.7689%	121.05%	93.0253%	112.128%	98.973%	77.8832%
Cn1cncc1[C@@](O)(COc1ccc(C#N)cc1-c1ccc(OC(F)(F)F)cc1)c1ccc(C#N)cc1 [A-108]	61.6996%	139.827%	89.1467%	110.638%	94.7328%	120.862%
CCC(=N\O)/C(C)=C/c1ccc(F)c(C)c1 [A-226]	127.527%	100.08%	93.31%	115.263%	131.471%	101.092%
CCCCN(CCCC)C(=O)CN1C[C@@H](c2cc(OC)c3c(c2)OCO3)[C@H](C(=O)O)[C@H]1CC(C)(C)CCC [A-545]	84.2855%	55.5874%	123.099%	97.2502%	148.86%	126.562%
CSc1cccnc1N1CCN(Cc2nc3ccccc3[nH]2)CC1 [A-769]	75.6066%	105.586%	125.432%	98.3481%	118.57%	113.172%
CN(C)CC#Cc1ccc(OCCCc2sc(N3CCc4cccc(C(=O)Nc5nc6ccccc6s5)c4C3)nc2C(=O)O)c(F)c1 [A-1155463]	0.3385%	128.541%	1.1769%	177.943%	2.034%	67.3537%
CO[C@H]1CC[C@H](CNc2ccc(S(=O)(=O)NC(=O)c3ccc(N4CCN(CC5=C(c6ccc(Cl)cc6)CC(C)(C)CC5)CC4)cc3Oc3cnc4[nH]ccc4c3)cc2[N+](=O)[O-])CC1 [A-1211212]	8.693%	108.861%	16.4932%	159.244%	54.5485%	97.9178%
COc1ccc2c(c1)O[C@H](c1ccc(OC)c(OC)c1)C[C@@H]2NC(=O)C1(c2ccc3c(c2)OC(F)(F)O3)CC1 [A-1596584]	86.7173%	88.6658%	73.1553%	142.746%	91.0132%	118.771%
